Structures are written as SMILES.

The assay has as its system Endogenous Huntingtin Protein. The experiment in a line: Endogenous Huntingtin Protein Assay (ELISA-based MSD electrochemiluminescence). It is filed as cell-based. To be noted: Table 1. The method, boiled down:
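Huntingtin was captured overnight at 4 °C on plates coated with 1 μg/mL MW1 (polyQ-expanded) or MAB2166 antibody and BSA-blocked. Detection used a rabbit monoclonal and then a SULFO-TAG goat anti-rabbit antibody (0.25 μg/mL, 1 h each, room temperature). Signal was read by electrochemiluminescence.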
Consider `Cn1cc2cc(-c3nc4ncc(C5CCNCC5)cc4s3)ccc2n1` [Compound 43, 2-(2-methyl-2H-indazol-5-yl)-6-(piperidin-4-yl)[1,3]thiazolo[4,5-b]pyridine], for which the IC50 lay in the range of 100 to 500 nM. As for `Cn1cc2cc(-c3cc(Cl)c4nc(C5=CCNCC5)sc4c3)cc(F)c2n1` [Compound 153, 4-chloro-6-(7-fluoro-2-methyl-2H-indazol-5-yl)-2-(1,2,3,6-tetrahydropyridin-4-yl)-1,3-benzothiazole], the figure is 1000 to 3000 nM; as for `CN1C[C@H](Nc2nc3nnc(-c4ccc(-c5cn[nH]c5)cc4O)cc3s2)[C@@H](F)C1` [Compound 342, 2-(6-{[(3S,4S)-4-fluoro-1-methylpyrrolidin-3-yl]amino}[1,3]thiazolo[4,5-c]pyridazin-3-yl)-5-(1H-pyrazol-4-yl)phenol], 100 to 500 nM. As for `Cc1cn2cc(-c3ccc4nc(N(C)C5CC6(C)CCC(C)(C5)N6)sc4n3)cc(C#N)c2n1` [Compound 291, 6-(2-{[(1R,3s,5S)-1,5-dimethyl-8-azabicyclo[3.2.1]octan-3-yl](methyl)amino}[1,3]thiazolo[5,4-b]pyridin-5-yl)-2-methylimidazo[1,2-a]pyridine-8-carbonitrile], the IC50 was at most 100 nM.

`Cn1cc2cc(-c3ccc4nc(N5CCC(N)CC5)sc4c3)ccc2n1` [Compound 29, 1-[6-(2-methyl-2H-indazol-5-yl)-1,3-benzothiazol-2-yl]piperidin-4-amine] displayed an IC50 of 1000 to 3000 nM. Molecule `Cc1cn2cc(-c3ncc4nc(N(C)C5CC(C)(C)NC(C)(C)C5)sc4n3)cc(C#N)c2n1` [Compound 170, 2-methyl-6-{2-[methyl(2,2,6,6-tetramethylpiperidin-4-yl)amino][1,3]thiazolo[5,4-d]pyrimidin-5-yl}imidazo[1,2-a]pyridine-8-carbonitrile] came in with a concentration for half-maximal inhibition (IC50) of at most 100 nM. As for `Cc1cn2cc(-c3ncc4nc(N(C)C5C[C@H]6CCC[C@@H](C5)N6)sc4n3)cc(F)c2n1` (stereo partly drawn) [Compound 257, N-[(1R,5S)-9-azabicyclo[3.3.1]non-3-yl]-5-(8-fluoro-2-methylimidazo[1,2-a]pyridin-6-yl)-N-methyl[1,3]thiazolo[5,4-d]pyrimidin-2-amine], the figure is at most 100 nM; as for `CN(c1nc2cnc(-c3cc(C#N)c4nn(C)cc4c3)cc2s1)C1CC2(C)CCC(C)(C1)N2` [Compound 287, 5-(2-{[(1R,3s,5S)-1,5-dimethyl-8-azabicyclo[3.2.1]octan-3-yl](methyl)amino}[1,3]thiazolo[4,5-c]pyridin-6-yl)-2-methyl-2H-indazole-7-carbonitrile], at most 100 nM. For the molecule `C[C@@H]1C[C@@H](N(C)c2nc3nnc(-c4ccc(-c5cn[nH]c5)cc4O)cc3s2)CCN1` [Compound 396, 2-(6-{methyl[(2R,4S)-2-methylpiperidin-4-yl]amino][1,3]thiazolo[4,5-c]pyridazin-3-yl)-5-(1H-pyrazol-4-yl)phenol], the half-inhibitory concentration (IC50) is at most 100 nM.

Molecule `CN(c1nc2nnc(-c3cc(C#N)c4nn(C)cc4c3)cc2s1)C1CC(C)(C)NC(C)(C)C1` [Compound 158, 2-methyl-5-{6-[methyl(2,2,6,6-tetramethylpiperidin-4-yl)amino][1,3]thiazolo[4,5-c]pyridazin-3-yl}-2H-indazole-7-carbonitrile] returned an IC50 of 100 to 500 nM. As for `CN1C[C@H](F)[C@@H](N(C)c2nc3nnc(-c4ccc(-c5cn[nH]c5)cc4O)cc3s2)C1` [Compound 382, 2-(6-{[(3S,4S)-4-fluoro-1-methylpyrrolidin-3-yl](methyl)amino}[1,3]thiazolo[4,5-c]pyridazin-3-yl)-5-(1H-pyrazol-4-yl)phenol], the figure is 100 to 500 nM; as for `CN(c1nc2cnc(-c3cc(F)c4nn(C)cc4c3)cc2s1)C1CC2CCC(C1)N2` (stereo not drawn) [Compound 205, N-[(3-exo)-8-azabicyclo[3.2.1]oct-3-yl]-6-(7-fluoro-2-methyl-2H-indazol-5-yl)-N-methyl[1,3]thiazolo[4,5-c]pyridin-2-amine], at most 100 nM. As for `Cn1cc2cc(-c3ccc4nc(C5CCCNCC5)sc4c3)ccc2n1` (centres unmarked) [Compound 42, 2-(azepan-4-yl)-6-(2-methyl-2H-indazol-5-yl)-1,3-benzothiazole], the figure is 100 to 500 nM. In turn, `Cn1cc2cc(-c3ccc4nc(OC5CC(C)(C)NC(C)(C)C5)sc4c3)ccc2n1` [Compound 64, 6-(2-methyl-2H-indazol-5-yl)-2-[(2,2,6,6-tetramethylpiperidin-4-yl)oxy]-1,3-benzothiazole] had a half-maximal inhibitory concentration (IC50) of 1000 to 3000 nM. As for `CN(c1nc2c(F)cc(-c3ccc4nn(C)cc4n3)cc2s1)C1CC2CCC(C1)N2` (stereo not drawn) [Compound 237, N-[(3-exo)-8-azabicyclo[3.2.1]oct-3-yl]-4-fluoro-N-methyl-6-(2-methyl-2H-pyrazolo[4,3-b]pyridin-5-yl)-1,3-benzothiazol-2-amine], the figure is 100 to 500 nM; as for `Cc1cn2nc(-c3ccc4nc(N(C)C5CC(C)(C)NC(C)(C)C5)sc4c3)ccc2n1` [Compound 40, N-methyl-6-(2-methylimidazo[1,2-b]pyridazin-6-yl)-N-(2,2,6,6-tetramethylpiperidin-4-yl)-1,3-benzothiazol-2-amine], at most 100 nM.

Molecule `CN(c1nc2nnc(-c3ccc(-c4cn[nH]c4)cc3O)cc2s1)C1CC(C)(C)NC(C)(C)C1` [Compound 119, 2-{6-[methyl(2,2,6,6-tetramethylpiperidin-4-yl)amino][1,3]thiazolo[4,5-c]pyridazin-3-yl}-5-(1H-pyrazol-4-yl)phenol] gave an IC50 of at most 100 nM.

In turn, `CC1CC(N(C)c2nc3cnc(-c4cc(C#N)c5nn(C)cc5c4)cc3s2)CCN1C` (centres unmarked) [Compound 377, 5-{2-[(1,2-dimethylpiperidin-4-yl)(methyl)amino][1,3]thiazolo[4,5-c]pyridin-6-yl}-2-methyl-2H-indazole-7-carbonitrile] showed an IC50 of 100 to 500 nM. Molecule `CN(c1nc2nnc(-c3ccc(-c4cn[nH]c4)cc3O)cc2s1)C1CCNCC1(C)C` (centres unmarked) [Compound 355, 2-{6-[(3,3-dimethylpiperidin-4-yl)(methyl)amino][1,3]thiazolo[4,5-c]pyridazin-3-yl}-5-(1H-pyrazol-4-yl)phenol] registered a half-maximal inhibitory concentration (IC50) of at most 100 nM. As for `CN1CC[C@@H]2CN(c3nc4nnc(-c5ccc(-c6cn[nH]c6)cc5O)cc4s3)[C@@H]2C1` [Compound 388, 2-{6-[(1S,6R)-3-methyl-3,8-diazabicyclo[4.2.0]octan-8-yl][1,3]thiazolo[4,5-c]pyridazin-3-yl}-5-(1H-pyrazol-4-yl)phenol], the figure is 100 to 500 nM; as for `Cc1cn2cc(-c3ccc4nc(N(C)C5CC(C)(C)NC(C)(C)C5)sc4n3)cc(F)c2n1` [Compound 177, 5-(8-fluoro-2-methylimidazo[1,2-a]pyridin-6-yl)-N-methyl-N-(2,2,6,6-tetramethylpiperidin-4-yl)[1,3]thiazolo[5,4-b]pyridin-2-amine], at most 100 nM. As for `CN(c1nc2cnc(-c3cc(F)c4nn(C)cc4c3)nc2s1)C1CC2(C)CC[C@](C)(C1)N2` (stereo partly drawn) [Compound 289, N-[(1R)-1,5-dimethyl-8-azabicyclo[3.2.1]octan-3-yl]-5-(7-fluoro-2-methyl-2H-indazol-5-yl)-N-methyl[1,3]thiazolo[5,4-d]pyrimidin-2-amine], the figure is at most 100 nM; as for `Cc1cn2cc(-c3cc(F)c4nc(C5=CCNCC5)sc4c3)cc(C)c2n1` [Compound 71, 6-(2,8-dimethylimidazo[1,2-a]pyridin-6-yl)-4-fluoro-2-(1,2,3,6-tetrahydropyridin-4-yl)-1,3-benzothiazole], 100 to 500 nM; as for `Cc1cc(-c2ccc3nc(OC4CC(C)(C)NC(C)(C)C4)sc3c2)cc2cn(C)nc12` [Compound 68, 6-(2,7-dimethyl-2H-indazol-5-yl)-2-[(2,2,6,6-tetramethylpiperidin-4-yl)oxy]-1,3-benzothiazole], 1000 to 3000 nM. As for `CN(c1nc2cnc(-c3cc(C#N)c4nn(C)cc4c3)cc2s1)C1CC(C)(C)NC(C)(C)C1` [Compound 117, 2-methyl-5-{2-[methyl(2,2,6,6-tetramethylpiperidin-4-yl)amino][1,3]thiazolo[4,5-c]pyridin-6-yl}-2H-indazole-7-carbonitrile], the figure is at most 100 nM; as for `CN(C)[C@H]1CC[C@H](N(C)c2nc3nnc(-c4ccc(-c5cn[nH]c5)cc4O)cc3s2)CC1` [Compound 351, 2-(6-{[(1r,4r)-4-(dimethylamino)cyclohexyl](methyl)amino][1,3]thiazolo[4,5-c]pyridazin-3-yl)-5-(1H-pyrazol-4-yl)phenol], 1000 to 3000 nM. In the case of `Cc1cc(-c2ccc3nc(N(C)C4CCNC(C)(C)C4)sc3c2)cc2cn(C)nc12` (centres unmarked) [Compound 146, 6-(2,7-dimethyl-2H-indazol-5-yl)-N-(2,2-dimethylpiperidin-4-yl)-N-methyl-1,3-benzothiazol-2-amine], the IC50 lay in the range of 100 to 500 nM. As for `CC1CC(N(C)c2nc3ccc(-c4ccc5nn(C)cc5c4)cc3s2)CC(C)N1` (centres unmarked) [Compound 176, N-(2,6-dimethylpiperidin-4-yl)-N-methyl-6-(2-methyl-2H-indazol-5-yl)-1,3-benzothiazol-2-amine], the figure is at most 100 nM; as for `Cc1cn2nc(-c3cc(F)c4nc(C5CCNCC5)sc4c3)cc(C)c2n1` [Compound 47, 6-[4-fluoro-2-(piperidin-4-yl)-1,3-benzothiazol-6-yl]-2,8-dimethylimidazo[1,2-b]pyridazine], at most 100 nM; as for `Cc1cn2nc(-c3cc(F)c4nc(N(C)C5CC(C)(C)NC(C)(C)C5)sc4c3)ccc2n1` [Compound 37, 4-fluoro-N-methyl-6-(2-methylimidazo[1,2-b]pyridazin-6-yl)-N-(2,2,6,6-tetramethylpiperidin-4-yl)-1,3-benzothiazol-2-amine], at most 100 nM. For `Cc1cn2cc(-c3cc4sc(N(C)[C@@H]5C[C@H]6CC[C@@H](C5)N6C)nc4cn3)cc(C#N)c2n1` [Compound 240, 2-methyl-6-(2-{methyl[(3-exo)-8-methyl-8-azabicyclo[3.2.1]oct-3-yl]amino}[1,3]thiazolo[4,5-c]pyridin-6-yl)imidazo[1,2-a]pyridine-8-carbonitrile], the IC50 is 100 to 500 nM. In turn, `Cn1cc2cc(-c3cc4sc(OC5CCNCC5)nc4cn3)cc(C#N)c2n1` [Compound 315, 2-methyl-5-{2-[(piperidin-4-yl)oxy][1,3]thiazolo[4,5-c]pyridin-6-yl}-2H-indazole-7-carbonitrile] returned an IC50 of 100 to 500 nM.

A word on the IC50: it is the point on the concentration scale where inhibition reaches its midpoint.
